What was measured:
[1] = biological target: T1, human ANO6 (Homo sapiens, UniProt Q4KMQ2); assay: LACT C2 assay (phosphatidylserine scramblase function assay); assay type: cell-based; settings: FRT cells expressing human ANO6, 10 μM ionomycin; for inhibition at 0.1 µM: test compound 100 nM, read-out: Inhibition Level 100 nM; for inhibition at 1 µM: test compound 1 μM, read-out: Inhibition Level 1 μM
T1 construct: expressed in transfected cells
T1 sequence (Q4KMQ2 1-931 isoform Q4KMQ2-2): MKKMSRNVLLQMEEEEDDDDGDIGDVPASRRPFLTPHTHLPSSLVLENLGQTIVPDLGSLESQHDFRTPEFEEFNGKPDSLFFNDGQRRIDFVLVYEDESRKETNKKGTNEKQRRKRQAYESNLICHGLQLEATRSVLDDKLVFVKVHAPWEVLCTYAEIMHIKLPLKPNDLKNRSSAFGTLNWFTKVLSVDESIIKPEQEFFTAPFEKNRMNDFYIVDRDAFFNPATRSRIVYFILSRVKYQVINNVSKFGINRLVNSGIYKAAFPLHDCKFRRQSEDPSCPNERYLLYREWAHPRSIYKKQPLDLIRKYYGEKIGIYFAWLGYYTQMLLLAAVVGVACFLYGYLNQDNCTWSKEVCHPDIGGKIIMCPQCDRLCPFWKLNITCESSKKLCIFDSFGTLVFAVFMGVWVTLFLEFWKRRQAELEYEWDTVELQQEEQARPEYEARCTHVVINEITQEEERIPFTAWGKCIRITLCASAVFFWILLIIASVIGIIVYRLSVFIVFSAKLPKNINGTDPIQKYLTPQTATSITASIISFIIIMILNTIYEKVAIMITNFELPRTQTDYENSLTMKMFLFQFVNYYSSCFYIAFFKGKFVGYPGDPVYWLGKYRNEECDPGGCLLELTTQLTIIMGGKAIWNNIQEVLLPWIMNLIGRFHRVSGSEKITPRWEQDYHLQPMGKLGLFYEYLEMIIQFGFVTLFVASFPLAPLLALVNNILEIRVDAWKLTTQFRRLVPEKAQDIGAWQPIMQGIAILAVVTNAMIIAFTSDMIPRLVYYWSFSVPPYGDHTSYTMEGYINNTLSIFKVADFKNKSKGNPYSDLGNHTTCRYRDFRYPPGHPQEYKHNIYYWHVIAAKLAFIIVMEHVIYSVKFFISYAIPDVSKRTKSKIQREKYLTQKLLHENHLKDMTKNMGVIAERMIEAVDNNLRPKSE
In short: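 Inhibition was normalised between ionomycin-only (0%) and untreated (100%) wells, with triplicates averaged. Readout was background-corrected Lact-C2-GFP (500 nM) fluorescence from imaged cells. The cells were FRT cells stably expressing human ANO6, given compound at 1% DMSO for 10 min before a 10 min 10 μM ionomycin challenge.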

[2] = system: platelet-rich plasma (PRP); assay: Recalcification time of rat platelet-rich plasma; settings: 30 μM, vs 2% DMSO control
Procedure: Example 5: Recalcification Time
1. Materials and Instruments
Isoflurane (Hana Pharm, cat. #9008), Isotonic Sodium Chloride Injection (Daihan Pharm, cat. #331), Citrate-dextrose solution (Sigma-Aldrich, cat. #C3821), Calcium chloride solution (Sigma-Aldrich, cat. #21115), 22G Syringe 10 mL (Koreavaccine), Dimethyl sulfoxide (Sigma-Aldrich, cat. #D5879), Apixaban (AK scientific, cat. #X1060), 96 Well Cell Culture Plates (SPL Life Sciences, cat. #30096), Synergy H4 Hybrid Microplate Reader (BioTek), Combi R515 Multi-purpose Centrifuge (Hanil Scientific), BS-06 Shaking & Heating Baths (JEIO TECH), and PST-60HL-4 Plate Shaker-Thermostat (Bio-San)
Seven-week-old male SD Rat (ORIENT BIO.) were maintained under controlled conditions of temperature (22±2° C.) and 12-h light/12-h dark cycle. Rats were housed in the pathogen-free facility of the Laboratory Animal Research Center in Ildong Pharmaceutical Co. Ltd. All procedures on animals were conducted in accordance with the relevant national regulatory guidelines and individual experiments approved by the Ildong Pharmaceutical Co. Ltd., Institutional Animal Care and Use Committee (IACUC) (approval No.: A2106-3, 2108-4).
The ability of test compounds to interfere with plasma coagulation, in the presence of platelets, was analyzing by measuring the recalcification time of rat plasma. The blood of animals was collected into 15 mL tubes containing Citrate-dextrose solution (9:1 v/v) before performing the assays. For recalcification time, platelet-rich plasma (PRP) samples were obtained by centrifugation at 360×g for 10 minutes. And the PRP were preincubated for 5 minutes (37° C.). In a 96 well microplate, test compounds (2 μL) were treated in 98 μL of platelet rich plasma. After mixing with a pipette, it was incubated at 37° C. for 15 minutes. The reaction was started by addition of 200 μL of pre-warmed CaCl2) (16 mM). Immediately, put the microplate in a microplate reader and the signals were measured by the following steps.
(1) 405 nm wavelength absorbance signals were recorded in every 10 seconds at 37° C.
(2) Basal absorbance signals were recorded for 0 second.
The signal variance of each of the test compounds was obtained by the following step.
(1) Background signals (t=O) were subtracted from recording values, and the resulting values were converted to change values. The values at 0 second were set to be zero.
The retardation time of test compound were calculated by the following formula:
Retardation time (sec)=[log EC50 (test sample)−log EC50 (DMSO control)]
As described above, a DMSO control group is a group to which 2% DMSO was treated.
The assay result is shown in Table 5, where compounds (30 μM) having less than 20 seconds of retardation time are marked by ‘C’; the compounds (30 μM) having retardation time of 20 seconds or more to less than 50 seconds are marked by ‘B’; and the compounds (30 μM) having retardation time of 50 seconds or more are marked by ‘A’.

[3] = biological target: T1, human ANO6; assay: YFP quenching assay (ANO6 ion channel activity); assay type: cell-based; settings: 10 μM ionomycin; for inhibition at 1 µM: test compound 1 μM, read-out: Inhibition Level 1 μM; for inhibition at 30 µM: test compound 30 μM, read-out: Inhibition Level 30 μM
In short: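 FRT cells stably expressing human ANO6 and YFP-H148Q/I152L/F46L, preincubated 10 min at 40° C with compounds (1% DMSO) in PBS. Quench read every 0.4 s after injecting 140 mM SCN- with 10 μM ionomycin; % inhibition from the 3.6–7.6 s fluorescence difference, normalised to no-ionomycin (100%) and ionomycin-only (0%) wells, duplicate or triplicate.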

| inhibition at 0.1 µM [1] [%] | inhibition at 1 µM [1] [%] | inhibition at 1 µM [3] [%] | inhibition at 30 µM [3] [%] | Compound | Inhibition Level (retardation time, recalcification time) [2] |
| --- | --- | --- | --- | --- | --- |
| < 30 | < 30 | ≥ 60 | ≥ 60 | Cc1ccc(CNC(=O)c2cccc(Nc3ccc(-c4ccccc4)nn3)c2)cc1 [Compound A52] | – |
| < 30 | < 30 | ≥ 60 | ≥ 60 | Cc1ccccc1CNC(=O)c1cccc(Nc2ccc(-c3ccc(F)cc3)nn2)c1 [Compound A35] | – |
| < 30 | < 30 | ≥ 60 | ≥ 60 | CCCNC(=O)c1cccc(Nc2ccc(-c3ccccc3)nn2)c1 [Compound A68] | – |
| < 30 | 30 to 60 | ≥ 60 | ≥ 60 | O=C(NCCc1ccccc1)c1cccc(Nc2ccc(-c3ccccc3)nn2)c1 [Compound A74] | – |
| < 30 | ≥ 60 | ≥ 60 | ≥ 60 | O=C(NC1CCCCCC1)c1cccc(Nc2ccc(-c3ccc(F)cc3)nn2)c1 [Compound A3] | – |
| < 30 | < 30 | ≥ 60 | ≥ 60 | Cc1cccc(-c2ccc(Nc3cccc(C(=O)NCC(C)C)c3)nn2)c1 [Compound A32] | – |
| < 30 | 30 to 60 | 30 to 60 | ≥ 60 | CSc1ccc(CNC(=O)c2cccc(Nc3ccc(-c4ccccc4)nn3)c2)cc1 [Compound A44] | – |

Continued, compound first:

| Compound | inhibition at 0.1 µM [1] [%] | inhibition at 1 µM [1] [%] | inhibition at 1 µM [3] [%] | inhibition at 30 µM [3] [%] | Inhibition Level (retardation time, recalcification time) [2] |
| --- | --- | --- | --- | --- | --- |
| O=C(N[C@@H]1C[C@H]1c1ccccc1)c1cccc(Nc2ccc(-c3cncnc3)cc2)c1 [Compound 165, N-((1R,2S)-2-phenylcyclopropyl)-3-((4-(pyrimidin-5-yl)phenyl)amino)benzamide] | < 30 | – | – | – | C (compounds (30 μM) having less than 20 seconds of retardation time) |
| O=C(Nc1cccc(F)c1)c1cccc(Nc2ncc(-c3ccoc3)cn2)c1 [Compound 176, N-(3-fluorophenyl)-3-((5-(furan-3-yl)pyrimidin-2-yl)amino)benzamide] | – | – | – | – | C (compounds (30 μM) having less than 20 seconds of retardation time) |
| CCC(CC)NC(=O)c1cccc(Nc2ccc(-c3ccccc3)nn2)c1 [Compound 66, N-(pentan-3-yl)-3-[(6-phenylpyridazin-3-yl)amino]benzamide] | – | < 30 | 30 to 60 | – | – |
| Cc1ccc(CNC(=O)c2cccc(Nc3cnc(-c4ccccc4)cn3)c2)o1 [Compound 1, N-[(5-methylfuran-2-yl)methyl]-3-[(5-phenylpyrazin-2-yl)amino]benzamide] | – | ≥ 60 | 30 to 60 | ≥ 60 | – |
| O=C(NCCc1ccccc1)c1cccc(Nc2ccc(-c3cccc(F)c3)cn2)c1 [Compound 121, 3-{[5-(3-fluorophenyl)pyridin-2-yl]amino}-N-(2-phenylethyl)benzamide] | – | 30 to 60 | ≥ 60 | – | – |
| Cc1ccc(CNC(=O)c2cccc(Nc3ccc(-c4ccccc4)cn3)c2)o1 [Compound 4, N-[(5-methylfuran-2-yl)methyl]-3-[(5-phenylpyridin-2-yl)amino]benzamide] | < 30 | ≥ 60 | ≥ 60 | ≥ 60 | – |
| O=C(NCC1CCCCC1)c1cccc(Nc2ccc(-c3ccccc3)nn2)c1 [Compound 31, N-(cyclohexylmethyl)-3-[(6-phenylpyridazin-3-yl)amino]benzamide] | < 30 | ≥ 60 | ≥ 60 | ≥ 60 | – |
| O=C(NCc1ccsc1)c1cccc(Nc2ccc(-c3ccccc3)nn2)c1 [Compound 44, 3-[(6-phenylpyridazin-3-yl)amino]-N-[(thiophen-3-yl)methyl]benzamide] | – | < 30 | ≥ 60 | – | – |
| O=C(N[C@@H]1C[C@H]1c1ccccc1)c1cccc(Nc2ncc(-c3ccccc3)cn2)c1 [Compound 117, N-[(1R,2S)-2-phenylcyclopropyl]-3-[(5-phenylpyrimidin-2-yl)amino]benzamide] | < 30 | < 30 | ≥ 60 | – | – |
| Cc1ccc(CNC(=O)c2cccc(Nc3ccc(-c4ccccc4)cc3)c2)o1 [Compound 3, 3-({[1,1′-biphenyl]-4-yl}amino)-N-[(5-methylfuran-2-yl)methyl]benzamide] | < 30 | ≥ 60 | ≥ 60 | ≥ 60 | – |
| Cc1ccc(CNC(=O)c2cccc(Nc3ccc(-c4ccsc4)nn3)c2)o1 [Compound 73, N-[(5-methylfuran-2-yl)methyl]-3-{[6-(thiophen-3-yl)pyridazin-3-yl]amino}benzamide] | < 30 | ≥ 60 | ≥ 60 | – | – |
| Cc1ccc(CNC(=O)c2cccc(Nc3ccc(C4CCCCC4)nn3)c2)o1 [Compound 63, 3-[(6-cyclohexylpyridazin-3-yl)amino]-N-[(5-methylfuran-2-yl)methyl]benzamide] | – | < 30 | 30 to 60 | – | – |
| O=C(NC1CC1c1ccccc1)c1cccc(Nc2ccc(-c3ccccc3)nn2)c1 (stereo not drawn) [Compound 67, N-(2-phenylcyclopropyl)-3-[(6-phenylpyridazin-3-yl)amino]benzamide] | ≥ 60 | ≥ 60 | ≥ 60 | – | – |
| COc1cccc(CCNC(=O)c2cccc(Nc3ncc(-c4cccc(F)c4)cn3)c2)c1 [Compound 78, 3-{[5-(3-fluorophenyl)pyrimidin-2-yl]amino}-N-[2-(3-methoxyphenyl)ethyl]benzamide] | 30 to 60 | ≥ 60 | 30 to 60 | – | – |
| O=C(NCC1CC1)c1cccc(Nc2ccc(-c3ccccc3)nn2)c1 [Compound 32, N-(cyclopropylmethyl)-3-[(6-phenylpyridazin-3-yl)amino]benzamide] | – | < 30 | ≥ 60 | ≥ 60 | – |
